Measured values as given in patent US11707065B2, “Method for biofilm dispersal” (MC (US) 3 LLC, priority 2017, dated 2023).

How the values were obtained:
[1] = test system: Desulfovibrio vulgaris (ATCC 29579) biofilm; test: Biofilm dispersal assay, crystal violet staining of remaining biofilm in 96-well plates; assay type: cell-based; conditions: D. vulgaris
Description: (§1) Cultures of Desulfovibrio vulgaris (ATCC 29579) and Desulfovibrio desulfuricans (DSM 12129) were prepared in Modified Baar's medium at 30 C under anaerobic conditions. The bacterial cultures were then used to prepare bacterial suspensions in fresh Modified Baar's medium to a cell density of 0.1 (Table 2 to 6) or 0.05 (Table 1) at 600 nm. The appropriate bacterial suspension was used to fill 96-well plates and the plates were incubated in an anaerobic glove box for 24 h (Table 2 to 6) or 48 h (Table 1) at 30° C. to develop biofilms. Stocks of D-mannose (2.85 M, Alfa Aesar, Cat #A10842), 2DG (1.22 M, Alfa Aesar, Cat #AAAL07338-06), αMM (1.22 M, Acros Organics, Cat #AC229251000), and αMG (1.22 M, Alfa Aesar, Cat #AAA12484-22) were prepared in sterile distilled water and filtered through a 0.22 μm filter. For biofilm dispersal assay, the planktonic cells were removed, and the plates were washed with 150 μL of 1× of phosphate buffered saline (pH 7.4); D-mannose, 2DG, αMM, and αMG were added, the volume was adjusted with 1×PBS, pH 7.4 to 150 μL, and the plates were incubated in the anaerobic glove box for 2 h (Table 1, 2, 4, 5, 6) or 14 h (Table 3) for biofilm dispersal studies. After the treatment, supernatants were discarded; the wells were washed three times with deionized water (DW) by dipping the plates into a 1 L solution of DW, and the plates were dried via a piece of paper towel by patting. 300 μL of 0.1% crystal violet was added to each well, the plates were incubated for 20 minutes at room temperature (25° C.), and the staining solution was discarded. The plates were washed three times with DW by dipping the plates into a 1 L solution of DW, then 300 μL of 95% ethanol was added to each well, and the plates were soaked for 5 min to dissolve the crystal violet. Total biofilm was measured spectrophotometrically at 540 nm using a Sunrise microplate reader (Tecan, Austria Gesellschaft, Salzburg, Austria).

[2] = test system: Desulfovibrio desulfuricans (DSM 12129) biofilm; test: as above; assay type: cell-based; conditions: D. desulfuricans, 2 h treatment, 24 h biofilm, negative control 0.88
Description: as §1

[3] = 30 mM, 2 h treatment, 24 h biofilm (cell density 0.1), negative control per table
[4] = 100 mM, 2 h treatment, 24 h biofilm (cell density 0.1), negative control per table
[5] = 500 mM, 2 h treatment, 24 h biofilm (cell density 0.1), negative control per table

SMILES | Remaining biofilm OD540 ([1]; 1 mM, 14 h treatment, 24 h biofilm, negative control 0.26) | Remaining biofilm OD540 ([1]; 5 mM, 14 h treatment, 24 h biofilm, negative control 0.26) | Remaining biofilm OD540 ([1]; 10 mM, 14 h treatment, 24 h biofilm, negative control 0.26) | Remaining biofilm OD540 [1, 3] | Remaining biofilm OD540 [1, 4] | Remaining biofilm OD540 [1, 5] | Remaining biofilm OD540 (average) ([2]; 30 mM) | Remaining biofilm OD540 (average) ([2]; 100 mM) | Remaining biofilm OD540 (average) ([2]; 500 mM)
O=CC[C@@H](O)[C@H](O)[C@H](O)CO [2DG, 2-deoxy-D-glucose] | 0.24 | 0.21 | 0.16 | 0.24 | 0.17 | 0.18 | 0.59 | 0.49 | 0.41
CO[C@H]1O[C@H](CO)[C@@H](O)[C@H](O)[C@H]1O [αMG, methyl α-D-glucopyranoside] |  |  |  | 0.39 | 0.33 | 0.45 | 0.75 | 0.62 | 0.55
CO[C@H]1O[C@H](CO)[C@@H](O)[C@H](O)[C@@H]1O [αMM, methyl α-D-mannopyranoside] |  |  |  | 0.42 | 0.40 | 0.23 | 0.60 | 0.53 | 0.50
